Counter-ions that a name gives are not always drawn.
Target: T1, full length SGK1 (Homo sapiens, UniProt O00141)
T1 construct: 125 μM full length SGK1 (Life Technologies Part #PR7358A); purchased Life Technologies PR7358A
T1 sequence (O00141 1-431): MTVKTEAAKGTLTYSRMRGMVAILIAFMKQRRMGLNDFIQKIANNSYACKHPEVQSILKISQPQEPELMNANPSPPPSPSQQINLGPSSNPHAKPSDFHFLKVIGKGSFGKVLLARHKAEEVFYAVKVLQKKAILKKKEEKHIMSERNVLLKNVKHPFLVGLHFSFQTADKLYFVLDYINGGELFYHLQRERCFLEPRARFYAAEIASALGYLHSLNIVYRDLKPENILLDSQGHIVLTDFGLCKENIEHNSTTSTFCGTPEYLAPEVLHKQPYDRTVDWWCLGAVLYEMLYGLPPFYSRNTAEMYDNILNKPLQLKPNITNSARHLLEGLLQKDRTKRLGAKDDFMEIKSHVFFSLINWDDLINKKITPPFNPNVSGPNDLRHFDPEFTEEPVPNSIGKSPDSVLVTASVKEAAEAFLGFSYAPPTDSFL
Test: SGK1 inhibition Assay A (Caliper LabChip electrophoretic separation of fluorescent peptide substrate and phosphorylated product)
Type: biochemical
Conditions: Assay A; 20 μM ATP, 40 min incubation; read-out: SGK1 IC50

IC50 | Structure (SMILES)
5 nM | CN(C)CCOc1cc(C(F)F)sc1C(=O)N[C@@H]1CCCN(c2cc(-c3ccnc(C(F)F)c3)n3ncnc(N)c23)C1 [Example 343, (R)—N-(1-(4-amino-7-(2-(difluoromethyl)pyridin-4-yl)pyrrolo[2,1-f][1,2,4]triazin-5-yl)piperidin-3-yl)-5-(difluoromethyl)-3-(2-(dimethylamino)ethoxy)thiophene-2-carboxamide]
9 nM | Cn1nccc1-c1cc(N2CCC[C@@H](NC(=O)c3ccc(Cl)s3)C2)c2c(N)ncnn12 [Example 210, (R)-N-(1-(4-amino-7-(1-methyl-1H-pyrazol-5-yl)pyrrolo[2,1-f][1,2,4]triazin-5-yl)piperidin-3-yl)-5-chlorothiophene-2-carboxamide, TFA]
68 nM | Nc1ncnn2c(-c3ccc4c(c3)C(=O)NC4)cc(N3CCC[C@@H](NC(=O)c4ccc(Cl)s4)C3)c12 [Example 219, (R)-N-(1-(4-amino-7-(3-oxoisoindolin-5-yl)pyrrolo[2,1-f][1,2,4]triazin-5-yl)piperidin-3-yl)-5-chlorothiophene-2-carboxamide]
14 nM | CS(=O)(=O)c1ccc(-c2cc(N3CCC[C@@H](NC(=O)c4sccc4F)C3)c3c(N)ncnn23)cc1 [Example 98, (R)-N-(1-(4-amino-7-(4-(methylsulfonyl)phenyl)pyrrolo[2,1-f][1,2,4]triazin-5-yl)piperidin-3-yl)-3-fluorothiophene-2-carboxamide]
9 nM | Nc1ncnn2c(-c3ccnc(C(F)F)c3)cc(N3CCC[C@@H](NC(=O)c4sc(Cl)cc4OCCN4CCC(F)(F)CC4)C3)c12 [Example 293, (R)-N-(1-(4-amino-7-(2-(difluoromethyl)pyridin-4-yl)pyrrolo[2,1-f][1,2,4]triazin-5-yl)piperidin-3-yl)-5-chloro-3-(2-(4,4-difluoropiperidin-1-yl)ethoxy)thiophene-2-carboxamide]

Target: T2, SGK1 (Homo sapiens, UniProt O00141)
T2 sequence (O00141 1-431): T1 sequence (O00141 1-431)
Test: SGK1 inhibition Assay B (Echo mass spectrometry of phosphorylated peptide product)
Type: biochemical
Conditions: 60 min at room temperature
Experimental: 20 μl of 2 nM SGK1 were added in 20 mM Hepes+10 mM MgCl2+0015% Brij-35+4 mM DTT+0.05 mg/ml BSA and the reaction incubated for 60 min at room temperature. The enzymatic reaction was quenched by addition 10 μl of 1% Formic Acid+150 nM Internal Standard: FITC-(Ahx)KKRNRR(pS)VA^—OH (final concentration). The plates are spun down at 3700 RPM for 10 minutes to remove all precipitate. Samples were loaded on to the Sciex Echo Mass Spec attached to a Sciex 6500 equipped with ESI and was used to analyze the phosphorylated peptide product. MRM transition of product and internal standard were monitored at m/z 755 to 937.5 and m/z 757.7 to 941.3 respectively. Peak area of analyte was normalized with internal standard.
Dose response curves were generated to determine the concentration required for inhibiting 50% of the enzyme activity. Compounds were dissolved at 10 mM in dimethylsulfoxide (DMSO) and evaluated at eleven concentrations.

IC50 | Structure (SMILES)
3 nM | COC(=O)N1CC=C(c2cc(N3CCC[C@@H](NC(=O)c4sc(C)nc4OC4CCNCC4)C3)c3c(N)ncnn23)C1 [Example 359, Methyl (R)-3-(4-amino-5-(3-(2-methyl-4-(piperidin-4-yloxy)thiazole-5-carboxamido)piperidin-1-yl)pyrrolo[2,1-f][1,2,4]triazin-7-yl)-2.5-dihydro-1H-pyrrole-1-carboxylate]
0.5 nM | CCC1=C(c2cc(N3CCC[C@@H](NC(=O)c4sc(C)nc4O[C@H]4CC[C@@H](NC(C)CO)CC4)C3)c3c(N)ncnn23)COC1=O (single isomer, unassigned) [Example 1019]
2 nM | CC(=O)N1CC=C(c2cc(N3CCC[C@@H](NC(=O)c4sc(C#N)cc4O[C@@H]4C[C@H]5CC[C@@H](C4)N5C)C3)c3c(N)ncnn23)C1 [Example 920, N—((R)-1-(7-(1-acetyl-2,5-dihydro-1H-pyrrol-3-yl)-4-aminopyrrolo[2,1-f][1,2,4]triazin-5-yl)piperidin-3-yl)-5-cyano-3-(((1R,3s,5S)-8-methyl-8-azabicyclo[3.2.1]octan-3-yl)oxy)thiophene-2-carboxamide]
0.5 nM | Cc1nc(O[C@H]2CC[C@]3(CCCN3C)CC2)c(C(=O)N[C@@H]2CCCN(c3cc(-c4ccc(C(N)=O)c(F)c4)n4ncnc(N)c34)C2)s1 [Example 931, N—((R)-1-(4-amino-7-(4-carbamoyl-3-fluorophenyl)pyrrolo[2,1-f][1,2,4]triazin-5-yl)piperidin-3-yl)-2-methyl-4-(((5S,8r)-1-methyl-1-azaspiro[4.5]decan-8-yl)oxy)thiazole-5-carboxamide, TFA salt]

Structure (SMILES) | IC50
CC(C)N1CC2(CN(c3cccc(C(=O)N[C@@H]4CCCN(c5cc(-c6cc(F)c(-n7cnnn7)c(F)c6)n6ncnc(N)c56)C4)n3)C2)C1 [Example 826, (R)-N-(1-(4-amino-7-(3,5-difluoro-4-(1H-tetrazol-1-yl)phenyl)pyrrolo[2,1-f][1,2,4]triazin-5-yl)piperidin-3-yl)-6-(6-isopropyl-2,6-diazaspiro[3.3]heptan-2-yl)picolinamide] | 3 nM

From US20260250290A1 (BRISTOL-MYERS SQUIBB COMPANY, priority 2023, published 2026)
